Here are results for 7 compounds from patent US10770169B2, “Method of providing a treatment to a subject based on a dynamic pathway map” (THE REGENTS OF THE UNIVERSITY OF CALIFORNIA, priority 2010, dated 2020).

The subject of assay [1] is luminal, basal, claudin-low and ERBB2AMP breast cancer cell lines. The experiment in a line: Associations of clinically relevant subtypes and response (non-parametric ANOVA or t-test on GI50 ranks). The conditions noted are these: for Subtype specificity: Table 6, most sensitive subtype, FDR p<0.20; for subtype-specific response (sensitivity by transcriptional subtype): GI50 across subtypes. The class given is cell-based, human. The text has this: A central premise of this study is that associations between responses and molecular subtypes observed in preclinical cell line analyses will be recapitulated in the clinic in instances where the predictive molecular features in the cell lines are mirrored in human tumors. We established response-subtype associations by using non-parametric ANOVAs to compare […] values across transcriptional and genomics subtypes.
Differences between GI50s of the groups were compared with a non-parametric ANOVA or t-test, as appropriate, on the ranks. We combined the p-values for the three sets of tests and used false discovery rate (FDR) to correct for multiple testing. For the three-sample test, we performed a post-hoc analysis on the compounds with a significant class effect by comparing each group to all others to determine which group was most sensitive. The p-values for the post-hoc test were FDR-corrected together. In all cases, FDR p<0.20 was deemed significant. […] Analyses were performed in R.

The subject of assay [2] is panel of 55 breast cancer cell lines. The experiment in a line: Cell growth inhibition assay (Cell Titer Glo, 72 h, 9 doses; GI50, TGI, LC50). The class given is cell-based, human. The conditions noted are these: value is the negative log10 of mol/L. On the technique in general: In ATP-based viability assays light output follows the ATP content of the culture.
Where [3] appears, read: AU565 cell line, censored GI50 values.
Where [4] appears, read: BT474 cell line, censored GI50 values.
Where [5] appears, read: BT483 cell line, censored GI50 values.
[6] abbreviates: CAMA1 cell line, censored GI50 values.
Setting [7] is: HCC1395 cell line, censored GI50 values.
The mark [8] stands for this setting: HCC1419 cell line, censored GI50 values.
[9] abbreviates: HCC1500 cell line, censored GI50 values.
Setting [10] is: HCC1806 cell line, censored GI50 values.
Setting [11] is: HCC1937 cell line, censored GI50 values.
Setting [12] is: HCC1954 cell line, censored GI50 values.

Entries after “also recorded” stand apart in the source; their conditions may differ.

As for `COc1cc2ncnc(Nc3cccc(Cl)c3)c2cc1OC` [AG1478], the “association of response with ERBB2 amplification” value in assay [1] is recorded as “positively associated with ERBB2 amplification”. For the same compound, the Subtype specificity entry in assay [1] is listed as “ERBB2AMP”. For the same compound, the GI50 in assay [2] (600MPE cell line, censored GI50 values) turned out to be 3.99; in assay [2] (setting [3]), 4.57; in assay [2] (setting [4]), 6.17; in assay [2] (setting [5]), 5.64; in assay [2] (BT549 cell line, censored GI50 values), 4.41; in assay [2] (setting [6]), 4.46. Moreover, the GI50 is listed as 4.03 in assay [2] (HCC38 cell line, censored GI50 values); 5.75 in assay [2] (HCC202 cell line, censored GI50 values); 4.57 in assay [2] (setting [7]); 5.92 in assay [2] (setting [8]); 4.58 in assay [2] (setting [9]); 4.07 in assay [2] (setting [10]). The GI50 is reported as 4.88 in assay [2] (setting [11]); 5.64 in assay [2] (setting [12]); 4.33 in assay [2] (HCC2185 cell line, censored GI50 values); 4.00 in assay [2] (MDAMB134VI cell line, censored GI50 values); 4.47 in assay [2] (MDAMB157 cell line, censored GI50 values); 6.19 in assay [2] (MDAMB175VII cell line, censored GI50 values). Also, the GI50 was determined as 4.71 in assay [2] (MDAMB361 cell line, censored GI50 values); 3.99 in assay [2] (MDAMB436 cell line, censored GI50 values); 4.02 in assay [2] (MDAMB468 cell line, censored GI50 values); 4.92 in assay [2] (SKBR3 cell line, censored GI50 values); 5.74 in assay [2] (SUM149PT cell line, censored GI50 values); 4.77 in assay [2] (SUM159PT cell line, censored GI50 values). Moreover, the GI50 stood at 5.60 in assay [2] (SUM1315MO2 cell line, censored GI50 values); 4.74 in assay [2] (T47D cell line, censored GI50 values); 5.65 in assay [2] (UACC893 cell line, censored GI50 values); 3.99 in assay [2] (cell line 600MPE); 4.57 in assay [2] (cell line AU565); 6.17 in assay [2] (cell line BT474). In addition, the GI50 in assay [2] (cell line BT483) was 5.64; in assay [2] (cell line BT549) it was 4.41; in assay [2] (cell line CAMA1) it was 4.46; in assay [2] (cell line HCC38), 4.03; in assay [2] (cell line HCC70), 3.94; in assay [2] (cell line HCC202) it was 5.75. Also, the GI50 in assay [2] (cell line HCC1143) is reported as 3.78; in assay [2] (cell line HCC1187) it was 3.78; in assay [2] (cell line HCC1395), 4.57; in assay [2] (cell line HCC1419), 5.92; in assay [2] (cell line HCC1428), 3.78; in assay [2] (cell line HCC1500) it was 4.58. Also, the GI50 came out at 4.07 in assay [2] (cell line HCC1806); 4.88 in assay [2] (cell line HCC1937); 5.64 in assay [2] (cell line HCC1954); 4.33 in assay [2] (cell line HCC2185); 3.78 in assay [2] (cell line LY2); 4.00 in assay [2] (cell line MDAMB134V). Moreover, the GI50 in assay [2] (cell line MDAMB157) is recorded as 4.47; in assay [2] (cell line MDAMB175V) it was 6.19; in assay [2] (cell line MDAMB361) it was 4.71; in assay [2] (cell line MDAMB415), 3.78; in assay [2] (cell line MDAMB436) it was 3.99; in assay [2] (cell line MDAMB453), 3.78. For the same compound, the GI50 is 4.02 in assay [2] (cell line MDAMB468); 4.92 in assay [2] (cell line SKBR3); 3.78 in assay [2] (cell line SUM52PE); 5.74 in assay [2] (cell line SUM149PT); 4.77 in assay [2] (cell line SUM159PT); 3.78 in assay [2] (cell line SUM185PE). The GI50 in assay [2] (cell line SUM1315MO) is reported as 5.60; in assay [2] (cell line T47D), 4.74; in assay [2] (cell line UACC893) it was 5.65; in assay [2] (cell line ZR75B) it was 3.78; in assay [2] (cell line ZR751) it was 3.78.

Consider `N.N.[Cl][Pt][Cl]` [Cisplatin], for which, in assay [1], the “subtype-specific response (sensitivity by transcriptional subtype)” value was “preferential activity in basal and/or claudin-low cell lines; also recorded: basal cell lines are preferentially sensitive; also recorded: Basal breast cancer cell lines preferentially respond” and the Subtype specificity entry is recorded as “Basal”.

As for `C[C@@H](Oc1cc(-n2cnc3ccc(CN4CCN(C)CC4)cc32)sc1C(N)=O)c1ccccc1C(F)(F)F` [GSK461364], in assay [1], the “subtype-specific response (sensitivity by transcriptional subtype)” value is “more active against basal and claudin-low cell lines”; the Subtype specificity result is recorded as “Basal + Claudin-low”.

Regarding `O=C1NC(=O)/C(=C/c2ccc3nccc(-c4ccncc4)c3c2)S1` [GSK1059615], the Subtype specificity result in assay [1] is “Luminal/ERBB2AMP”.

Take `COc1ncc(-c2ccc3nccc(-c4ccnnc4)c3c2)cc1NS(=O)(=O)c1ccc(F)cc1F` [GSK2126458]: the Subtype specificity result in assay [1] is “Luminal/ERBB2AMP”.

In the case of `O=C(CCCCCCC(=O)Nc1ccccc1)NO` [Vorinostat], in assay [1], the Subtype specificity result was “Luminal”.

Turning to Oxamflatin, the GI50 is on record as 6.19 in assay [2] (setting [3]); 6.57 in assay [2] (setting [4]); 6.15 in assay [2] (setting [5]); 6.27 in assay [2] (setting [6]); 6.28 in assay [2] (HCC1143 cell line, censored GI50 values); 6.19 in assay [2] (HCC1187 cell line, censored GI50 values). Besides, the GI50 in assay [2] (setting [7]) came out at 5.64; in assay [2] (setting [8]) it was 5.88; in assay [2] (HCC1428 cell line, censored GI50 values), 6.33; in assay [2] (setting [9]), 5.98; in assay [2] (setting [10]) it was 6.16; in assay [2] (setting [11]), 5.84. Further, the GI50 in assay [2] (setting [12]) amounted to 5.81; in assay [2] (cell line AU565), 6.19; in assay [2] (cell line BT474), 6.57; in assay [2] (cell line BT483), 6.15; in assay [2] (cell line CAMA1), 6.27; in assay [2] (cell line HCC38) it was 6.77. Moreover, the GI50 in assay [2] (cell line HCC70) came out at 6.35; in assay [2] (cell line HCC1143), 6.28; in assay [2] (cell line HCC1187) it was 6.19; in assay [2] (cell line HCC1395), 5.64; in assay [2] (cell line HCC1419) it was 5.88; in assay [2] (cell line HCC1428), 6.33. The GI50 in assay [2] (cell line HCC1500) is on record as 5.98; in assay [2] (cell line HCC1806) it was 6.16; in assay [2] (cell line HCC1937) it was 5.84; in assay [2] (cell line HCC1954), 5.81; in assay [2] (cell line HCC2185), 6.46; in assay [2] (cell line HCC3153), 5.82. Moreover, the GI50 in assay [2] (cell line LY2) is reported as 5.88; in assay [2] (cell line MDAMB134V), 6.18; in assay [2] (cell line MDAMB175V) it was 5.41; in assay [2] (cell line MDAMB361), 6.15; in assay [2] (cell line MDAMB415), 6.14; in assay [2] (cell line MDAMB453), 6.56. For the same compound, the GI50 in assay [2] (cell line MDAMB468) was found to be 5.57; in assay [2] (cell line SKBR3), 5.96; in assay [2] (cell line SUM52PE) it was 6.22; in assay [2] (cell line SUM149PT), 6.17; in assay [2] (cell line SUM159PT) it was 6.50; in assay [2] (cell line SUM185PE), 6.51. Further, the GI50 in assay [2] (cell line SUM225CWN) is 6.07; in assay [2] (cell line SUM1315MO), 5.64; in assay [2] (cell line T47D), 6.06; in assay [2] (cell line UACC812), 5.71; in assay [2] (cell line ZR75B) it was 6.41.
